Earlier results as cited in patent publication US8471030B2, “Purification of montelukast using simulated moving bed” (Orochem Technologies Inc., priority 2010, dated 2013).

CC(C)(O)c1ccccc1CC[C@@H](SCC1(CC(=O)O)CC1)c1cccc(/C=C/c2ccc3ccc(Cl)cc3n2)c1 [Montelukast]
stability in acidic solutions (acidic solutions): degrade rapidly | stability in solution when exposed to light (in solution, exposed to light, forms the Montelukast-cis isomer): unstable when exposed to light
